According to patent publication US5624831A, “Immobilized acetylcholinesterase stabilized by a film of gelatin or albumin containing trehalose” (priority 1994, dated 1997):

Assays:
[1] = system: acetylcholinesterase; assay: Analysis of a drug in spiked serum by inhibition of acetylcholinesterase; assay type: biochemical; settings: serum of a healthy subject
Procedure: (§1) The serum of a healthy subject was spiked with increasing concentrations of pyridostygmin and thereafter analysed for the enzymatic activity of acetylcholinesterase, following the protocol already outlined in former examples. One sees in graph 1 that the detection Of the inhibitor of AchE goes down to 1 to 2 μg/ml of this drug in serum.
as §1, with “neostygmin” for “pyridostygmin”, “2” for “1”, “of this” for “Of the”, “50 ng/ml” for “1 to 2 μg/ml”
as §1, with “A” for “The”, “eserin” for “pyridostygmin”, “3” for “1”, “of this” for “Of the”, “100 ng/ml” for “1 to 2 μg/ml”

[2] = molecular target: T1, torpedo fish AchE (Torpedo marmorata, UniProt P07692); assay: Analysis of 5 pesticides dissolved in water by inhibition of immobilized AchE (Table VIII); assay type: biochemical; settings: for sensitivity of the test (in words): in water, gelatin-trehalose protected; for times less sensitivity of detection: compared with Naled, Carbofuran, Paraoxon
T1 construct: from tissue
T1 sequence (P07692 25-590): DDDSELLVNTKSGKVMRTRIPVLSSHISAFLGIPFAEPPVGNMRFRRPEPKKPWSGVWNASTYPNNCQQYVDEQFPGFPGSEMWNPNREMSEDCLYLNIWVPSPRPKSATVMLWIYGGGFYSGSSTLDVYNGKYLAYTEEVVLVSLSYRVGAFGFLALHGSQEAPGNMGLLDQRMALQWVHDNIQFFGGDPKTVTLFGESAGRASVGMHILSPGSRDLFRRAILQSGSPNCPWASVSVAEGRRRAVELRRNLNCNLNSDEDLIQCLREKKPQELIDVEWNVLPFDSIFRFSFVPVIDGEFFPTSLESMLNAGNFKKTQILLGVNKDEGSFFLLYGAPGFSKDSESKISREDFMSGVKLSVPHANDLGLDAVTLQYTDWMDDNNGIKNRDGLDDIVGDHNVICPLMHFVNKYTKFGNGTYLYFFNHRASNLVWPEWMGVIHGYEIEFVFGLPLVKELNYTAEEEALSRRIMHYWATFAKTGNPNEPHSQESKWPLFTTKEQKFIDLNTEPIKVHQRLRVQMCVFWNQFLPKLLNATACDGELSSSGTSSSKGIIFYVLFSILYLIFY

[3] = molecular target: T2, acetylcholinesterase (Torpedo marmorata, UniProt P07692); assay: Analysis of pesticides in salad extracts by inhibition of acetylcholinesterase (Table IX); assay type: biochemical; settings: read-out: % relative activity
T2 construct: from tissue
T2 sequence (P07692 25-590): as above
Excerpt: The analysis of the presence of these inhibitors was done following the protocol described in example 1.

[4] = system: Horseradish peroxidase; assay: Stability of immobilized peroxidase under gelatin or albumin film containing trehalose, 7 days dry storage (Table II); assay type: physicochemical; settings: included in the gelifying film
Procedure: Horseradish peroxidase (0.2 mg/ml) was used to sensitize the wells of microtitration plates, following the method described in example I. After sensitization during one night at 4° C., the wells were covered either with a warm solution (47° C. for the solubilisation, 37° C. for the pouring into the wells) of a 5% gelatin solution or a 5% albumin solution, both containing trehalose in decreasing concentrations starting from a concentration of 8 mg/ml. Triton X100 at a concentration of 0.04% was added to the albumin solution, as a wetting agent. The wells were immediately emptied without rinsing and were thereafter placed at 4° C. and 37° C. duiring 7 days in a dry incubator. The remaining peroxidase activity was measured by addition to the wells of 100 μl of a solution of tetramethylbenzidine and hydrogen peroxide in a citrate-phosphate buffer at pH 5.5. The blue coloration obtained changes to yellow with sulfuric acid (100 μl, 0.5 N), added to stop the enzymatic reaction. The results are given in adsorbances read at 450 nm (table II)

[5] = system: Acetylcholinesterase, extracted from torpedo fish; assay: Stability of acetylcholinesterase-sensitized wells: residual enzymatic activity after 7 days dry storage (Table I); assay type: physicochemical
Procedure: After a night of incubation at 4° C., the wells were rinsed and thereafter subjected to the following analysis:
1. Control (nothing added)
2. Rinsing of the wells with buffered water (0.05 M phosphate pH 7,00) containing 15% trehalose.
3. Covering of the wells with buffered water (0.05 M phosphate pH 7,00) containing 5% gelatin (240 bloom), followed by the elimination of the gelatin without rinsing
4. Covering of the wells with buffered water (0.05 M phosphate pH 7,00) containing 5% gelatin (240 bloom) and 15% trehalose, followed by an elimination of the gelatin witout rinsing.
The gelatin was solubilized by heating at 47° C., then cooling down to 37° C. before dispensing in the wells. The wells of the microtitration plates handled in this way were placed at 4° C., 37° C. and 50° C. during 7 days in a dry incubator, then analyzed for the remaining enzymatic activity, according to Ellman's method. Results are given in adsorbances read at 412 nm (table I).

Row | Structure (SMILES) | % of Residual activity ([2]; 01 μg/litre in water) [%] | % of Residual activity ([2]; 10 μg/litre in water) [%] | % of Residual activity ([2]; 50 μg/litre in water) [%] | % of Residual activity ([2]; 100 μg/litre in water) [%] | % of Residual activity ([2]; 1000 μg/litre in water) [%] | sensitivity of the test (in words) [2] | further results
1 | CN(C)C(=O)Oc1cccc([N+](C)(C)C)c1 [neostygmin] |  |  |  |  |  |  | detection of this inhibitor of AchE goes down to [1]: 50 ng/mL
2 | CCOP(=O)(OCC)Oc1ccc([N+](=O)[O-])cc1 [Paraoxon] | 80 | 40 | 0 | 0 | 0 | followed closely | 
3 | CNC(=O)Oc1cccc2c1OC(C)(C)C2 [Carbofuran] | 73 | 35 | 20 | 18 | 14 | most sensitive | 
4 | CNC(=O)Oc1cccc2ccccc12 [Carbaryl] |  | 80 | 61 | 44 | 18 |  | times less sensitivity of detection [2]: 100 times; activity at 0.01 µg/mL [3]: 80%; activity at 0.05 µg/mL [3]: 61%; activity at 0.1 µg/mL [3]: 51%; activity at 0.5 µg/mL [3]: 26%; activity at 1 µg/mL [3]: 28%
5 | CNC(=O)Oc1ccc2c(c1)[C@]1(C)CCN(C)[C@@H]1N2C [eserin] |  |  |  |  |  |  | detection of this inhibitor of AchE goes down to [1]: 100 ng/mL
6 | COP(=O)(OC)OC=C(Cl)Cl [Dichlorvos] |  | 80 | 60 | 49 | 3 |  | times less sensitivity of detection [2]: 100 times
7 | COP(=O)(OC)OC(Br)C(Cl)(Cl)Br (centres unmarked) [Naled] | 73 | 11 | 0 | 0 | 0 | most sensitive | activity at 0.001 µg/mL [3]: 90%; activity at 0.01 µg/mL [3]: 63%; activity at 0.05 µg/mL [3]: 20%; activity at 0.1 µg/mL [3]: 9%; activity at 1 µg/mL [3]: 3%
8 | OC[C@H]1O[C@H](O[C@H]2O[C@H](CO)[C@@H](O)[C@H](O)[C@H]2O)[C@H](O)[C@@H](O)[C@@H]1O [Trehalose, α-D glucopyranosyl-α-D-glucopyranoside] |  |  |  |  |  |  | concentration of trehalose sufficient and necessary to stabilize the dry enzyme [4]: Two; Residual enzymatic activity after storage of AchE-sensitized wells during 7 days ([5]; 4° C.): 1.88 adsorbances read at 412 nm; Residual enzymatic activity after storage of AchE-sensitized wells during 7 days ([5]; 37° C.): 0.97 adsorbances read at 412 nm; Residual enzymatic activity after storage of AchE-sensitized wells during 7 days ([5]; 50° C.): 0.12 adsorbances read at 412 nm
